Data set [1] deals with Diet-Induced Obesity Rat Model. The data set is described as follows: Weight loss experiments in diet-induced obesity rat model. The data set is classed as in vivo. The settings on record: for difference to control group E (weight loss effect): SPSS12.0 analysis, p<0.01, versus control group E on normal feed; for average weight variation (g) after / average weight variation (g) before: obese male rats; for average weight variation (g) before: n=10 per group. The source says: Male weaned rats (each weighs 50 g) divided into 5 groups with each group 10 rats.
The rats are orally administrated L-carnitine tartrate (Group A), L-hydroxy citric acid (Group B), L-carnitine tartrate and L-hydroxy citric acid (Group C), L-carnitine tartrate and L-hydroxy citric acid and asiaticosides (Group D), respectively. For comparison, a control group E is also set herewith. The oral administration dosage is 5 times that for human (kg/day). The rats are fed with feed comprising one of the active components set forth above for continuous 30 days.
Feed preparation: the feed comprises (a) basic feed consisting of 20 wt % of barley meal, 10 wt % of dehydrated vegetables, 20 wt % of pulse flour, 1 wt % of yeast, 5 wt % of bone dust, 16 wt % of cornmeal, 16 wt % of wheat skin, 10 wt % of fish meal and 2 wt % of salt, and (b) nutritive feed selected from the group consisting of powdered milk, lard, egg and soybean sprout. 10 g of powdered milk, 10 g of lard, one egg and 250 g of soybean sprout are added per 100 g of basic feed.
In the first and second week, each rat is fed 13 g of feed per day, with an increase in the amount of the feed of 2 g every week until the sixth week ([…]). The rats are fed twice a day. After the rats are fed with the high-fat, high-nutrition feed above for 45 days, the weight of the rat fed with such feed is nearly two times that of the rat in the control group fed with normal feed (the difference may be more than 100 g).
After the establishment of the rat model, rats in different groups are orally administrated L-carnitine tartrate (Group A), L-hydroxy citric acid (Group B), L-carnitine tartrate and L-hydroxy citric acid (Group C), L-carnitine tartrate and L-hydroxy citric acid and asiaticosides (Group D). The components are blended in the feed. No additional component is added to the normal feed fed the control group.
The experiment data is analyzed by software SPSS12.0 edition, and the result are shown as below: […]

The conditions of data set [2]: cited from earlier work.
The conditions of data set [3]: cited from earlier work. The source holds these as a separate data set.
Where [4] appears, read: after minus before, 30 days oral administration in feed, dosage 5 times that for human.
Where [5] appears, read: fat pad around testicle and kidney, after 30 days oral administration in feed, dosage 5 times that for human.
[6] abbreviates: fat pad around testicle and kidney, after minus before, 30 days oral administration in feed.
The mark [7] stands for this setting: fat pad around testicle and kidney, before the 30 days of oral administration in feed (baseline).
[8] abbreviates: after 30 days oral administration in feed, dosage 5 times that for human.
Setting [9] is: before the 30 days of oral administration in feed (baseline).

For the molecule `C[N+](C)(C)C[C@H](O)CC(=O)[O-].O=C(O)C(O)C(O)C(=O)O` [Group A, L-carnitine tartrate], the “difference to control group E (weight loss effect)” value in data set [1] is recorded as “significant”. For the same molecule, in data set [1] (setting [4]), the “average weight variation (g) variation” value is -5 g. In addition, the figures for the “average fat pad weight” value in data set [1] (setting [5]), in data set [1] (setting [6]) and in data set [1] (setting [7]) were 3.93 g, -2.3 g and 6.23 g, respectively. For the same molecule, the “average weight variation (g) after” value in data set [1] (setting [8]) was determined as 98.28 g. Besides, the “average weight variation (g) before” value in data set [1] (setting [9]) is given as 103.28 g.

`O=C(O)CC(O)(C(=O)O)C(O)C(=O)O` [Group B, L-hydroxy citric acid]: in data set [1], the “difference to control group E (weight loss effect)” value was “significant”. Also, in data set [1] (setting [4]), the “average weight variation (g) variation” value is -5.8 g. Further, the “average percentage body fat variation (g) after” value in data set [1] (setting [5]) is listed as 3.81 g. The “average percentage body fat variation (g) variation” value in data set [1] (setting [6]) is -2.4 g. Besides, the “average percentage body fat variation (g) before” value in data set [1] (setting [7]) came to 6.21 g. In addition, the “average weight variation (g) after” value in data set [1] (setting [8]) turned out to be 97.32 g. Besides, the “average weight variation (g) before” value in data set [1] (setting [9]) is 103.12 g.

For the molecule `C[N+](C)(C)C[C@H](O)CC(=O)[O-]` [L-carnitine], the in vivo half-life in data set [2] is 8.4 h. Besides, the solubility in water result in data set [3] is “easy to dissolve in water”.

Values taken from US20090169490A1, “COMPOSITION AND METHOD FOR WEIGHT LOSS” (Guangzhou Konzern Pharmaceutical Co., Ltd, priority 2007, published 2009).
